Test results reported in US12384753B2, “17-beta-hydroxysteroid dehydrogenase type 13 inhibitors and methods of use thereof” (Enanta Pharmaceuticals, Inc., priority 2021, dated 2025).

biological target: Recombinant human HSD17B13 (Homo sapiens (Human), UniProt Q7Z5P4); assay: HSD17B13 rapid-fire mass spectrometry assay (RF/MS assay); format: biochemical; conditions: inhibition of HSD17B13; LTB4 10 μM, NAD+ 0.5 mM, RT 3 h; IC50 ranges A-E
Procedure, shortened: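 Sf9-expressed human HSD17B13 (80 nM) with 10 μM LTB4 and 0.5 mM NAD+, incubated with compound (0–100 μM) for 3 h at RT in Tris pH 7.5/BSA/Tween-20. After formic acid quench, LTB4 conversion to 12-oxo-LTB4 measured by RapidFire MS/MS. IC50 from normalised residual activity, duplicates.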

Recombinant human HSD17B13, sequence (Q7Z5P4 20-300): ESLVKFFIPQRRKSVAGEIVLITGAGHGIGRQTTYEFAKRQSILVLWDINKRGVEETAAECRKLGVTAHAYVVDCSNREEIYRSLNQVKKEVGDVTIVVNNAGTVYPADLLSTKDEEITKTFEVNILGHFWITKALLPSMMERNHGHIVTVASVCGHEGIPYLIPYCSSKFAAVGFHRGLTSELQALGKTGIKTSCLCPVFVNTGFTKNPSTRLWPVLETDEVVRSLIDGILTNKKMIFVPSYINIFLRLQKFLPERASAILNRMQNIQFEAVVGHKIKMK

| IC50 [nM] | SMILES |
| --- | --- |
| 100 to 500 | COc1cc(C(=O)O)ccc1NS(=O)(=O)c1csc(-c2ccc([C@H]3CC[C@@H](C(F)(F)F)CC3)cc2)n1 [Example 608] |
| 100 to 500 | COc1cc(C(=O)O)ccc1NS(=O)(=O)c1csc(N2CCN(Cc3ccc(OC(F)(F)F)cc3)CC2)n1 [Example 308] |
| 100 to 500 | COc1cc(C(=O)O)ccc1NS(=O)(=O)c1ccc(-c2ccc(F)cc2)c(OC)c1 [Example 324] |
| < 100 | COc1cc(C(=O)O)ccc1NS(=O)(=O)c1csc(C#Cc2ccccc2C)n1 [Example 187] |
| < 100 | COc1cc(C(=O)O)c(F)cc1NS(=O)(=O)c1csc(C#Cc2ccc(O)cc2)n1 [Example 229] |
| 100 to 500 | COc1cc(C(=O)O)ccc1NS(=O)(=O)c1csc(-c2ccc(C3CCCC(OC)C3)cc2)n1 (centres unmarked) [Example 426, 3-methoxy-4-((2-(4-(3-methoxycyclohexyl)phenyl)thiazole)-4-sulfonamido)benzoic acid] |
| 1000 to 100000 | COc1cc(C(=O)O)ccc1NS(=O)(=O)c1csc(-c2ccc(F)c3ccoc23)n1 [Example 89] |
| 100 to 500 | COc1cc(C(=O)O)c(F)cc1NS(=O)(=O)c1csc(-c2ccc([C@H]3CC[C@H](C(C)(C)C)CC3)c(OC(C)C)c2F)n1 [Example 598] |
| < 100 | COc1cc(C(=O)O)c(F)cc1NS(=O)(=O)c1coc(-c2ccc(C3CCC(C)(C)CC3)cc2)n1 [Example 496] |
| 500 to 1000 | COc1cc(C(=O)O)ccc1NS(=O)(=O)c1ccc(-c2cccc(-c3ccc(C(F)(F)F)cc3)c2)s1 [Example 252] |
| 1000 to 100000 | COc1cc(C(=O)O)ccc1NS(=O)(=O)c1c[nH]c2ccccc12 [Example 137] |
| 100 to 500 | COc1cc(C(=O)O)ccc1NS(=O)(=O)c1cccc(-c2ccc(C3CCCCC3)cc2)n1 [Example 412] |
| 500 to 1000 | COc1cc(C(=O)O)ccc1NS(=O)(=O)N1Cc2ccc(C#CC3CCCC3)cc2C1 [Example 342] |
| 100 to 500 | COc1cc(C(=O)O)ccc1NS(=O)(=O)c1csc(C#Cc2ccc(C)cc2)n1 [Example 176, 3-methoxy-4-((2-(p-tolylethynyl)thiazole)-4-sulfonamido)benzoic acid] |
| 100 to 500 | COc1cc(C(=O)O)ccc1NS(=O)(=O)c1csc(N2CCN(c3ccc(C(F)(F)F)cc3)CC2)n1 [Example 272] |
| < 100 | COc1cc(C(=O)O)c(F)cc1NS(=O)(=O)c1cnc(-c2ccc(-c3ccc(C(F)(F)C(F)(F)F)cc3)cc2)s1 [Example 770] |
| 500 to 1000 | COc1cc(C(=O)O)ccc1NS(=O)(=O)c1csc(-c2ccc(C3CCCC3)cc2)n1 [Example 300] |
| 1000 to 100000 | COc1cc(C(=O)O)ccc1NS(=O)(=O)c1csc(N2CCN(S(=O)(=O)c3ccc(C)cc3)CC2)n1 [Example 290] |
| 100 to 500 | COc1cc(C(=O)O)ccc1NS(=O)(=O)c1ccc(-c2ccc(C(F)(F)F)cc2)s1 [Example 178] |
| 100 to 500 | COc1ccc(-c2nc(S(=O)(=O)Nc3ccc(C(=O)O)cc3OC)cs2)cc1 [Example 99] |
| 100 to 500 | COc1cc(C(=O)O)ccc1NS(=O)(=O)c1csc(C#Cc2ccc(C(N)=O)c(OC(F)(F)F)c2)n1 [Example 391] |
| 100 to 500 | COc1cc(C(=O)O)ccc1NS(=O)(=O)c1csc(C#Cc2ccc(OC(F)(F)F)cc2)n1 [Example 226] |
| 1000 to 100000 | O=C(O)c1ccc(NS(=O)(=O)c2cnc(-c3ccc(F)cc3)s2)cn1 [Example 26] |
| < 100 | COc1cc(C(=O)O)c(F)cc1NS(=O)(=O)c1csc(C#Cc2ccc(C)cc2)n1 [Example 220] |
| 100 to 500 | COc1cc(C(=O)O)ccc1NS(=O)(=O)c1ccc(-c2ccc(-c3ccc(C)cc3)cc2)s1 [Example 199] |

| IC50 [nM] | SMILES |
| --- | --- |
| 100 to 500 | COc1cc(C(=O)O)c(F)cc1NS(=O)(=O)c1nc(-c2ccc(C3CCCCC3)cc2)sc1C [Example 665] |
| < 100 | COc1cc(C(=O)O)ccc1NS(=O)(=O)c1csc(C#Cc2cccc(C(F)(F)F)c2)n1 [Example 202] |
| < 100 | COc1cc(C(=O)O)c(F)cc1NS(=O)(=O)c1csc(-c2ccc(C3CCC(C)(C)CC3)c(F)c2)n1 [Example 513] |
| < 100 | COc1cc(C(=O)O)c(F)cc1NS(=O)(=O)c1csc(-c2ccc(-c3ccc(C4CC4)cc3C(F)(F)F)cc2C(F)(F)F)n1 [Example 757] |
| 1000 to 100000 | CC[C@H]1CC[C@H](c2ccc(-c3nc(S(=O)(=O)Nc4ccc5c(O)cccc5c4OC)cs3)cc2)CC1 [Example 648] |
| < 100 | COc1cc(C(=O)O)c(F)cc1NS(=O)(=O)c1cnc(-c2ccc(F)cc2)s1 [Example 39] |
| 1000 to 100000 | COc1cc(C(=O)O)ccc1NS(=O)(=O)c1ccc(-c2csc(C)n2)cc1 [Example 298] |
| 100 to 500 | COc1cc(C(=O)O)c(F)cc1NS(=O)(=O)c1csc(-c2ccc(-c3ccc(C45CC6C[C@H](C4)C[C@H](C6)C5)cc3)c(C(F)(F)F)c2)n1 [Example 738] |
| 1000 to 100000 | COc1cc(C(=O)O)ccc1NS(=O)(=O)N1CCC(c2ccccc2)CC1 [Example 310] |
| < 100 | COc1cc(C(=O)O)ccc1NS(=O)(=O)c1coc(-c2ccc(C(F)(F)F)cc2)n1 [Example 414] |
| < 100 | COc1cc(C(=O)O)c(F)cc1NS(=O)(=O)c1coc(-c2ccc(C3CCC4(CC3)OCCO4)cc2)n1 [Example 618] |
| < 100 | COc1cc(C(=O)O)c(F)cc1NS(=O)(=O)c1csc(-c2ccc(C3=CCC(C)(C)CC3)cc2C)n1 [Example 556] |
| 500 to 1000 | COc1cc(C(=O)O)ccc1NS(=O)(=O)c1csc(-c2ccccc2OC)n1 [Example 141] |
| 100 to 500 | COc1cc(C(=O)O)ccc1NS(=O)(=O)c1csc(-c2cccc(F)c2)n1 [Example 95] |
| 1000 to 100000 | O=C(O)c1ccc(NS(=O)(=O)c2cnc(-c3ccc(F)cc3)s2)c(C(F)(F)F)c1 [Example 45] |
| 1000 to 100000 | COc1cc(C(=O)O)ccc1NS(=O)(=O)c1ccc(-c2ccccc2O)s1 [Example 192] |
| 500 to 1000 | COc1cc(C(=O)O)ccc1NS(=O)(=O)c1csc(-c2cccc(C)c2)n1 [Example 124] |
| < 100 | O=C(O)c1ccc(NS(=O)(=O)c2cnc(-c3ccc(F)cc3)s2)c(O)c1F [Example 62] |
| < 100 | COc1cc(C(=O)O)ccc1NS(=O)(=O)c1cccc(-c2ccc([C@H]3CC[C@H](C(F)(F)F)CC3)cc2)c1F [Example 475, 4-((2-fluoro-4′-((1r,4r)-4-(trifluoromethyl)cyclohexyl)-[1,1′-biphenyl])-3-sulfonamido)-3-methoxybenzoic acid] |
| 1000 to 100000 | COc1cc(C(=O)O)ccc1NS(=O)(=O)c1ccc2sc(-c3ccc(F)cc3)nc2c1 [Example 323] |
| < 100 | COc1cc(C(=O)O)ccc1NS(=O)(=O)c1csc(-c2ccc(C3CCC(C(F)(F)F)CC3)cc2)n1 (centres unmarked) [Example 348] |
| 100 to 500 | COc1cc(C(=O)O)ccc1NS(=O)(=O)c1ccc(-c2ccc(C3(O)CCC(C)(C)CC3)cc2)s1 [Example 430, 4-((5-(4-(1-hydroxy-4,4-dimethylcyclohexyl)phenyl)thiophene)-2-sulfonamido)-3-methoxybenzoic acid] |
| 1000 to 100000 | COc1cc(C#N)ccc1NS(=O)(=O)c1cnc(-c2ccc(F)cc2)s1 [Example 123] |
| 100 to 500 | COc1cc(C(=O)O)ccc1NS(=O)(=O)c1csc(-c2ccc(C)cc2)n1 [Example 97] |
| 100 to 500 | COc1cc(C(=O)O)ccc1NS(=O)(=O)c1ccc(-c2ccccc2C(F)(F)F)s1 [Example 213] |
